Our source for the inhibition, IC50 and viability values is ChEMBL document CHEMBL6103662, “Thiosulfonate-Based Targeted Covalent Cruzipain Inhibitors with Enhanced Bioactivity Translation for Antichagasic Therapy” (ACS Med Chem Lett, 2025).

For data set [1], the target named is Cruzipain (Trypanosoma cruzi) (UniProt P25779). Nature of the data set: Inhibition of recombinant Trypanosoma cruzi Cruzain at 100 uM using Z-FR-AMC as substrate preincubated for 10 mins followed by substrate addition and measured at 5 secs interval for 10 mins by fluorimetry relative to control. The following applies: time 20.0 min.
Data set [2] addresses cathepsin L (Homo sapiens, UniProt P07711). Description: Inhibition of recombinant human cathepsin L at 100 uM using Z-FR-AMC as substrate preincubated for 10 mins followed by substrate addition and measured for 20 mins by fluorimetry relative to control. The following applies: probe Z-FR-AMC, time 30 min.
Data set [3] addresses Cruzipain (Trypanosoma cruzi, UniProt P25779). Description: Inhibition of recombinant Trypanosoma cruzi Cruzain using Z-FR-AMC as substrate preincubated for 10 mins followed by substrate addition and measured at 5 secs interval for 10 mins by fluorimetry.
Data set [4] deals with Trypanosoma cruzi. Nature of the data set: Antitrypanosomal activity against Trypanosoma cruzi Tulahuen trypomastigotes expressing Escherichia coli beta-galactosidase infected in Vero cells at 50 uM measured after 72 hrs by beta-galactosidase based assay relative to control. Format: functional.
Data set [5] has as its system Trypanosoma cruzi. Description: Antitrypanosomal activity against Trypanosoma cruzi Tulahuen trypomastigotes expressing Escherichia coli beta-galactosidase infected in Vero cells at 10 uM measured after 72 hrs by beta-galactosidase based assay relative to control. The class given is functional.
Data set [6] in a line: Cytotoxicity against African green monkey Vero cells assessed as cell viability at 50 uM measured after 96 hrs by Alamar blue assay relative to control. The class given is toxicity, cell-based. The following applies: chlorocebus sabaeus, read-out: Activity.
Data set [7] has as its system Trypanosoma cruzi. Nature of the data set: Antitrypanosomal activity against Trypanosoma cruzi Tulahuen trypomastigotes expressing Escherichia coli beta-galactosidase infected in Vero cells at 1 uM measured after 72 hrs by beta-galactosidase based assay relative to control. Format: functional.
The subject of data set [8] is Trypanosoma cruzi. Nature of the data set: Antitrypanosomal activity against Trypanosoma cruzi Tulahuen trypomastigotes expressing Escherichia coli beta-galactosidase infected in Vero cells measured after 72 hrs by beta-galactosidase based assay. Format: functional, organism-based.
For data set [9], the target named is Cruzipain (Trypanosoma cruzi) (UniProt P25779). Nature of the data set: Reversible inhibition of recombinant Trypanosoma cruzi Cruzain assessed as recovery of enzyme activity at 10 x IC50 using Z-FR-AMC as substrate preincubated for 30 mins followed by 100-fold dilution with assay buffer containing substrate and measured after 15 to 120 mins by fluorescence based jump dilution assay. As to conditions: time 150.0 min.

Data set [10] shares this target. Description: Inhibition of recombinant Trypanosoma cruzi Cruzain at 100 uM using Z-FR-AMC as substrate measured at 5 secs interval for 10 mins by fluorimetry relative to control.
Data set [11] shares this target. Description: Inhibition of recombinant Trypanosoma cruzi Cruzain at 10 x IC50 using Z-FR-AMC as substrate preincubated for 30 mins followed by 100-fold dilution with assay buffer containing substrate and measured up to 15 mins by fluorescence based jump dilution assay. The following applies: time 45.0 min.
For data set [12], the system named is Trypanosoma cruzi. Description: Trypanocidal activity against Trypanosoma cruzi. Format: functional, organism-based.

Structures are written as SMILES. Calls of active or inactive are those of the source. The rule behind the calls is not given here.

Chain of Cruzipain (Trypanosoma cruzi) (P25779 123-467 limits assumed): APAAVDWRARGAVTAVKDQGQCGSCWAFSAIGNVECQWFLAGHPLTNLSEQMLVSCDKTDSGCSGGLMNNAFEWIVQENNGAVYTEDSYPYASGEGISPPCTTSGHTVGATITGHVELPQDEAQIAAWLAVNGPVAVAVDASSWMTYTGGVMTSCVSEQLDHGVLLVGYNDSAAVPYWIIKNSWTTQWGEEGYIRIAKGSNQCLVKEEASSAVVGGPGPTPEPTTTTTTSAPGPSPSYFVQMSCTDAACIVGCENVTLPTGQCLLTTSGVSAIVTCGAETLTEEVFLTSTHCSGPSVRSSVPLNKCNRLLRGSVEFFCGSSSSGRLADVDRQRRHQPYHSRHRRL
Chain of Cruzipain (P25779 whole entry): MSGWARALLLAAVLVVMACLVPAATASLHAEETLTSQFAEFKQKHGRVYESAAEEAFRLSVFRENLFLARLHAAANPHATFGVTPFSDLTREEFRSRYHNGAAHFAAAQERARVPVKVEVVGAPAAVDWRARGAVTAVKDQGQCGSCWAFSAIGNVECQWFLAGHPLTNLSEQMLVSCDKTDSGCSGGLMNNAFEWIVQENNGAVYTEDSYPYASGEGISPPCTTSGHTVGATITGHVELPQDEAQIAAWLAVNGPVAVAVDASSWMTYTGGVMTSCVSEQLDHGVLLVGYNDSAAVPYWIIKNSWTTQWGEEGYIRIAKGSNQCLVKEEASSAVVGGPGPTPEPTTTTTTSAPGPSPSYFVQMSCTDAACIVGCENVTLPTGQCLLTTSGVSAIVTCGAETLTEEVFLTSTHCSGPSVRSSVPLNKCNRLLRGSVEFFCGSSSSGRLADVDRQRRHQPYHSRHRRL
Chain of cathepsin L (P07711 whole entry): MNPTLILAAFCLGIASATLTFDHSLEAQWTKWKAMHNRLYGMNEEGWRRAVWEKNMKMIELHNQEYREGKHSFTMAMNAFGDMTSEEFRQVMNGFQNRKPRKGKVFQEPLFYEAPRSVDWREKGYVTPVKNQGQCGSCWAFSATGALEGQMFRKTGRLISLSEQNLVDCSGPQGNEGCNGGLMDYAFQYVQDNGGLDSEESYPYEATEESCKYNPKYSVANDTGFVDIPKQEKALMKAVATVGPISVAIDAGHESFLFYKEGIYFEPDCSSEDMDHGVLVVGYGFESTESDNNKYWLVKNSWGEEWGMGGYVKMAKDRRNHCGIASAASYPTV

As a reminder, the inhibition is the percentage by which the read-out fell short of the control. Take `CCC(CC)C(NCc1ccc2c(c1)OCO2)c1cn([C@@H](CSS(=O)(=O)c2ccccc2)C(=O)O)nn1` (stereo partly drawn): the inhibition in data set [1] turned out to be 33%.

Usually IC50 stands for the midpoint of a concentration-inhibition curve. On to `CCCCC(c1cn([C@@H](CSS(=O)(=O)c2ccccc2)C(=O)OCC)nn1)N1CCc2ccccc2C1` (stereo partly drawn), for which the inhibition at 20 min, 100 µM in [2] worked out at 0%. Besides, the IC50 in [3] turned out to be 25 µM. This molecule showed an inhibition at 50 µM in data set [4] of 91.7%. This molecule also gave an inhibition at 10 µM in data set [5] of 31%. The viability at 96 h, 50 µM in [6] turned out to be 82%. Also, in [1], the inhibition was 76%.

`COC(=O)[C@H](CSS(=O)(=O)c1ccccc1)n1cc(C(NCc2ccc3c(c2)OCO3)C2CCCC2)nn1` (stereo partly drawn): the inhibition at 20 min, 100 µM in [2] is 23%. Also, in data set [3], the IC50 was 9.7 µM. The molecule further registered an inhibition at 50 µM in data set [4] of 98%. The same molecule displayed an inhibition at 10 µM in [5] of 88%. In addition, the viability at 96 h, 50 µM in data set [6] was found to be 53%. At 1 µM the inhibition in [7] was 2%. The inhibition in data set [1] was 90%.

Take `CC(C)[C@H](CSS(=O)(=O)c1ccccc1)n1cc(C(NCc2ccc3c(c2)OCO3)C2CCCCC2)nn1` (stereo partly drawn): in data set [2], the inhibition at 20 min, 100 µM was found to be 0%. In addition, the IC50 in data set [3] amounted to 4 µM; in data set [8], 7.8 µM. In [4], at 50 µM the inhibition was 100%. Also, the inhibition at 10 µM in data set [5] amounted to 93%. For the same molecule, in data set [9], the inhibition result was “Active”. Also, the viability at 96 h, 50 µM in data set [6] came to 75%. Besides, the inhibition in data set [1] came out at 73%; in data set [10], 20%.

`CCOC(=O)[C@H](Cc1ccccc1)n1cc(C(NCc2ccc3c(c2)OCO3)C2CCCCC2)nn1` (stereo partly drawn): the inhibition in data set [1] stood at 15%.

`O=C[C@H](Cc1ccccc1)n1cc(C(NCc2ccc3c(c2)OCO3)C2CCCCC2)nn1` (stereo partly drawn): the IC50 in data set [3] was found to be 41 µM. In data set [4], this molecule came in with an inhibition at 50 µM of 10%. The inhibition in data set [1] was 64%.

Take `CCOC(=O)[C@H](CSS(=O)(=O)c1ccccc1)n1cc(C(NCc2ccc3c(c2)OCO3)C(CC)CC)nn1` (stereo partly drawn): the inhibition at 20 min, 100 µM in data set [2] was 2%. Further, in data set [3], the IC50 is 24 µM. Further, the inhibition at 50 µM in [4] was determined as 97%. The molecule also had an inhibition at 10 µM in data set [5] of 91%. In addition, in [6], the viability at 96 h, 50 µM came out at 70%. In data set [7], at 1 µM the inhibition was 0%. For the same molecule, the inhibition in data set [1] turned out to be 56%.

Regarding `CCCCC(NCc1ccc2c(c1)OCO2)c1cn([C@@H](CSS(=O)(=O)c2ccccc2)C(=O)OCC)nn1` (stereo partly drawn), the inhibition at 20 min, 100 µM in data set [2] was 84%. The IC50 in data set [3] worked out at 3.2 µM. In addition, the inhibition at 50 µM in data set [4] came out at 97%. Besides, the inhibition at 10 µM in [5] was determined as 83%. Besides, the viability at 96 h, 50 µM in [6] worked out at 63%. Testing at 1 µM in data set [7] gave an inhibition of 10.7%. The inhibition in [1] amounted to 92%.

For the molecule `COc1ccc(COC(=O)[C@H](CSS(=O)(=O)c2ccccc2)n2cc(C(NCc3ccc4c(c3)OCO4)C3CCCCC3)nn2)cc1` (stereo partly drawn), the inhibition at 20 min, 100 µM in data set [2] came out at 16%. For the same molecule, in [4], testing at 50 µM gave an inhibition of 5%. The viability at 96 h, 50 µM in data set [6] was 97%. Besides, the inhibition is 50% in data set [1] and 7% in [10].

Take `CCOC(=O)[C@H](CSS(=O)(=O)c1ccccc1)n1cc(C(NCc2ccc3c(c2)OCO3)C2CCCCC2)nn1` (stereo partly drawn): the inhibition at 20 min, 100 µM in [2] amounted to 47%. The half-maximal inhibitory concentration (IC50) in data set [3] came to 2.7 µM. Further, the inhibition at 50 µM in data set [4] was determined as 100%. Besides, the inhibition at 10 µM in [5] came out at 96%. Besides, the inhibition entry in data set [11] is “Active; Showed Near-Zero Slope”; in data set [9], “Active; Gradual Recovery Of Enzyme Activity Observed”; in data set [1] it was 92%; in data set [10] it was 39%. For the same molecule, in data set [6], the viability at 96 h, 50 µM was 87%. In addition, 1 µM produced 14% inhibition in [7].

With `O=S(=O)(SC[C@@H](Cc1ccccc1)n1cc(C(NCc2ccc3c(c2)OCO3)C2CCCCC2)nn1)c1ccccc1` (stereo partly drawn), in data set [2], the inhibition at 20 min, 100 µM was found to be 13%. The IC50 in [3] worked out at 2.2 µM; in data set [8], 1.9 µM. Moreover, the inhibition at 50 µM in data set [4] is 99.9%. Also, at 10 µM the inhibition in [5] was 91%. Further, in data set [9], the inhibition entry is “Active”. The viability at 96 h, 50 µM in data set [6] turned out to be 100%. In addition, the inhibition in [1] came to 86%; in data set [10], 39%.

For `O=C(O)[C@H](CSS(=O)(=O)c1ccccc1)n1cc(C(NCc2ccc3c(c2)OCO3)C2CCCCC2)nn1` (stereo partly drawn), the inhibition in [1] came out at 41%.

`O=C(Cn1ccnc1[N+](=O)[O-])NCc1ccccc1` [BENZNIDAZOLE] displayed a 50% inhibitory concentration (IC50) in [12] of 1.45 µM.

Turning to `CCOC(=O)[C@H](CSS(=O)(=O)c1ccccc1)n1cc(C(C2CCCCC2)N2CCc3ccccc3C2)nn1` (stereo partly drawn), the inhibition at 20 min, 100 µM in data set [2] worked out at 8%. The IC50 in data set [3] came out at 13.7 µM. The inhibition at 50 µM in data set [4] worked out at 91%. Moreover, in data set [5], at 10 µM the inhibition was 77%. For the same molecule, the viability at 96 h, 50 µM in data set [6] worked out at 87%. Moreover, in [7], testing at 1 µM gave an inhibition of 0%. For the same molecule, the inhibition in data set [1] turned out to be 80%.

With `COC(=O)[C@H](CSS(=O)(=O)c1ccccc1)n1cc(C(NCc2ccc3c(c2)OCO3)C2CCCCC2)nn1` (stereo partly drawn), the inhibition at 20 min, 100 µM in [2] was 55%. For the same molecule, the IC50 in [3] was found to be 12 µM. The molecule further yielded an inhibition at 50 µM in data set [4] of 100%. Further, the inhibition at 10 µM in data set [5] was 90%. Further, the viability at 96 h, 50 µM in data set [6] is 82%. For the same molecule, testing at 1 µM in data set [7] gave an inhibition of 3%. Moreover, the inhibition was 83% in data set [1] and 55% in data set [10].

In the case of `O=C(O)[C@H](CSS(=O)(=O)c1ccccc1)n1cc(C(C2CCCCC2)N2CCc3ccccc3C2)nn1` (stereo partly drawn), the inhibition in [1] came out at 28%.
